Results published in article PMC3159312 (Enzyme Research, 2011).
Read-outs that look alike come from different tables or passages of the source.

Legend:
[1] = target: T1, MtUGM (Mycobacterium tuberculosis, UniProt P9WIQ1); experiment: FP binding assay to determine chromophore binding affinities (MtUGM); settings: UDP-fluorescent probes, fluorescence anisotropy; read-out: K d for MtUGM
T1 construct: made in house

[2] = target: T2, AfUGM (Aspergillus fumigatus, UniProt Q4W1X2); experiment: FP binding assay to determine chromophore binding affinities (AfUGM); settings: for Kd: UDP-fluorescent probes, 15 nM chromophore, serially diluted AfUGM, 0.05 M sodium phosphate pH 7.0, fluorescence anisotropy, read-out: K d for AfUGM; for Binding to AfUGM relative to the UDP-fluorescein analogs (times better): ratio of Kd values
T2 construct: made in house
Procedure: Solutions containing various concentrations of chromophore in 0.05 M sodium phosphate buffer (pH 7.0) were added to 12 wells in a 96-well half area black bottom plate (Corning) with final volumes of 25 μL. FP was analyzed by a SpectraMax M5 plate reader (Molecular Devices). The parallel fluorescence emission (F=) and perpendicular fluorescence emission (F⊥) at 524 nm (for compounds 1 and 2, excitation at 492 nm) or at 584 nm (for compounds 3 and 4, excitation at 544 nm) were measured by a SpectraMax M5 plate reader (Molecular Devices), and the anisotropy (r) was calculated using (1), the minimal concentration at which stable FP signals with minimal standard deviations were chosen as the optimal concentration for the chromophore.
(1) r=F=−G·F⊥/F=+2G·F⊥ (2) y=m1+(m2−m1) ×(x+Ct+m3)−(x+Ct+m3)^2−4xCt/2Ct
Solutions containing serially diluted AfUGM and 15 nM of chromophore in 0.05 M sodium phosphate buffer (pH 7.0) were incubated at room temperature for 5 minutes. Each experiment was done in triplicate in a 96-well black bottom plate at final volumes of 25 μL. Fluorescence anisotropy was measured as indicated above, and the K d values were obtained by fitting the anisotropy data to (2), where m 1 and m 2 are the minimum and maximum anisotropy values, respectively; m 3 is the K d value, and the total concentration of UDP-chromophore is represented by C t.

[3] = target: T2, AfUGM; settings: previously determined; read-out: K d for AfUGM by directly monitoring the flavin fluorescence; cited from earlier work
[4] = target: T1, MtUGM; experiment: Competitive binding FP inhibition assay (MtUGM)
Procedure: (§1) Each solution was done in triplicate. Anisotropy values were measured and the IC50 values obtained by fitting the data to (4), where m 1 and m 2 are the minimum and maximum anisotropy, respectively; m 3 is the slope, and m4 is the IC50.

[5] = target: T2, AfUGM; experiment: Competitive binding experiments using FP inhibition assay (AfUGM, chromophore 3 as probe)
Procedure: as §1

[6] = target: T2, AfUGM; experiment: AfUGM activity assay (formation of UDP-Galp from UDP-Galf by HPLC); assay type: biochemical; settings: 0.5 mM UDP-Galf, 50 nM AfUGM, 37°C, 10 min
Procedure: A 20 μL reaction containing 20 mM dithiothreitol, 0.5 mM UDP-Galf in 25 mM HEPES, 125 mM NaCl buffer, pH 7.5 in the absence of 7 or 8 was initiated by the addition of AfUGM at a final concentration of 50 nM. After incubation at 37°C for 10 min, the reaction was quenched by heat denaturation (95°C for 5 min) in a DNA engine thermocycler (BioRad, Hercules, Calif, USA). The same reaction was also performed in the presence of 7 (500 μM) or 8 (50 μM). The suspension was centrifuged and the supernatant was injected onto a CarboPac PA100 (Dionex) anion-exchange column. The sample was eluted isocratically with 75 mM KH2PO4 (pH 4.5), and the absorbance at 262 nm was monitored to identify fractions of substrate and product.

T2 sequence (Q4W1X2 whole entry): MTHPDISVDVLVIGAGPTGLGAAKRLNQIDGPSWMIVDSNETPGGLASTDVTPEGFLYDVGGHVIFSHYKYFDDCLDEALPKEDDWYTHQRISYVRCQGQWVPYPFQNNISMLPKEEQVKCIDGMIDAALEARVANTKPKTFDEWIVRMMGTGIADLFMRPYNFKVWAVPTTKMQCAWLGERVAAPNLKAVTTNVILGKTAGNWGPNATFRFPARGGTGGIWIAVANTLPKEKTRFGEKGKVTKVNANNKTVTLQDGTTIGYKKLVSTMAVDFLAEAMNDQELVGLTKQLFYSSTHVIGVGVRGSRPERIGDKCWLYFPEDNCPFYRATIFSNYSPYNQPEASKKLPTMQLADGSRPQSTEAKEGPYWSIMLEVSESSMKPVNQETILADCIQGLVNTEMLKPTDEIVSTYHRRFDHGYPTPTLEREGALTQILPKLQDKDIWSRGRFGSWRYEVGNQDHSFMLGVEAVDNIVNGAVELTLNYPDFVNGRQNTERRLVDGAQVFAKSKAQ
T1 sequence (P9WIQ1 whole entry): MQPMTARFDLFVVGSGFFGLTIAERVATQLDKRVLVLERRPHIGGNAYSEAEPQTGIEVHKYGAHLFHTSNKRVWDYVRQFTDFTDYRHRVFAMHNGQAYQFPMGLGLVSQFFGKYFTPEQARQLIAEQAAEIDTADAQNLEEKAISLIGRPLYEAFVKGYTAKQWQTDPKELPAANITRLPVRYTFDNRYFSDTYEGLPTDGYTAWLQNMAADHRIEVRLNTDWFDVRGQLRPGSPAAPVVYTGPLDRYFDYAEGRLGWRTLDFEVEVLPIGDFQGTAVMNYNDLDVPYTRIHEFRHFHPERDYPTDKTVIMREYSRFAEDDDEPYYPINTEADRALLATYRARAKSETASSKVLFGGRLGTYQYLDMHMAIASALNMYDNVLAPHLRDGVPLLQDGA

| Compound | Kd [1] | Kd [2] | Binding to AfUGM relative to the UDP-fluorescein analogs (times better) [2] | Kd [4] | Kd [5] | other results |
| --- | --- | --- | --- | --- | --- | --- |
| CN(C)c1ccc2c(-c3ccc(C(=O)NCCCCCCOP(=O)(O)OP(=O)(O)OCC4OC(n5ccc(=O)[nH]c5=O)C(O)C4O)cc3C(=O)[O-])c3ccc(=[N+](C)C)cc-3oc2c1 (stereo not drawn) [Chromophore 3] | 730 ± 70 nM | 2600 ± 200 nM | ~ 6 times | – | – | – |
| O=c1ccn([C@@H]2O[C@H](COP(=O)(O)OP(=O)(O)O)[C@@H](O)[C@H]2O)c(=O)[nH]1 [UDP] | – | – | – | – | – | Kd [3]: 33 ± 9 µM; Kd ([4]; UGM ligands, FP competition, read-out: K d for MtUGM): 15 ± 2 µM; Kd ([5]; read-out: K d for AfUGM): 9 ± 1.7 µM |
| O=C(Nc1ccccc1C(=O)O)c1ccc2c(c1)C(=O)N(c1ccc(Br)cc1)C2=O [compound 7] | – | – | – | 21 ± 1 µM | 140 ± 9 µM | Inhibition of AfUGM activity (conversion of UDP-Galf to UDP-Galp, HPLC) ([6]; inhibitor 500 μM): inhibit the activity of AfUGM |
| CN(C)c1ccc2c(-c3ccc(C(=O)NCCOP(=O)(O)OP(=O)(O)OCC4OC(n5ccc(=O)[nH]c5=O)C(O)C4O)cc3C(=O)[O-])c3ccc(=[N+](C)C)cc-3oc2c1 (stereo not drawn) [Chromophore 4] | > 30000 nM | 3000 ± 700 nM | ~ 6 times | – | – | – |
| O=C1N/C(=N/S(=O)(=O)c2ccccc2)S/C1=C1/C(=O)Nc2ccc([N+](=O)[O-])cc21 [compound 8] | – | – | – | 25 ± 2 µM | 11 ± 0.4 µM | Inhibition of AfUGM activity (conversion of UDP-Galf to UDP-Galp, HPLC) ([6]; inhibitor 50 μM): inhibit the activity of AfUGM |
